Results published in ChEMBL document CHEMBL4814032, “Discovery of an indole-substituted furanone with tubulin polymerization inhibition activity” (Bioorg Med Chem Lett, 2021).
Active and inactive are the calls of the source. No cut-off for these calls is given here.

Assays:
U-937 = assay: Cytotoxicity against human U-937 cells by MTT assay; assay type: functional, cell-based
[1] = molecular target: T1, Protein kinase C epsilon type (Homo sapiens) (UniProt Q02156); assay: Binding affinity to PKCepsilon (unknown origin)
T1 sequence (whole entry): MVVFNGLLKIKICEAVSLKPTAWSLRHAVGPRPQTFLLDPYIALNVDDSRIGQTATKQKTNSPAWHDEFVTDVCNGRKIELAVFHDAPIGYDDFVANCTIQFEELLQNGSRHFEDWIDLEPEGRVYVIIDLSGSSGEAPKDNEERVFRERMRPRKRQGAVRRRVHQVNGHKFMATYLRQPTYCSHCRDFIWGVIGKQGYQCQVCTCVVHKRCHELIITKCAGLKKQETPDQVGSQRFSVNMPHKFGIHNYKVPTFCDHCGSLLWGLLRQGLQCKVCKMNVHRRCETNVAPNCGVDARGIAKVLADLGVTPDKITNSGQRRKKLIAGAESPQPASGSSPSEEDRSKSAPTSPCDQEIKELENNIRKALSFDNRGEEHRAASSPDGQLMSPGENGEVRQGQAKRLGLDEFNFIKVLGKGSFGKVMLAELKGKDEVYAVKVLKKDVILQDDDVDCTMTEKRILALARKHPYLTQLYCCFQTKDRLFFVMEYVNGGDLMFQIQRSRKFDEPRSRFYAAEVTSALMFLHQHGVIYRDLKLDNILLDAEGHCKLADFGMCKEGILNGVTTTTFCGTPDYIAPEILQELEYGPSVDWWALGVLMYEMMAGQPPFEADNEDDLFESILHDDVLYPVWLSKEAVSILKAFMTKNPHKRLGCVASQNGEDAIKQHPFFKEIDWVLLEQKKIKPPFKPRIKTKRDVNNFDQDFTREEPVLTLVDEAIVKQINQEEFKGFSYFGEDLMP

[2] = molecular target: Vascular endothelial growth factor receptor 3 (Homo sapiens) (UniProt P35916); assay: Binding affinity to VEGFR3 (unknown origin)
Tubulin (Homo sapiens) = Tubulin (Homo sapiens) (UniProt P68371+Q9H4B7+P0DPH7+P68366+Q13509+Q71U36+P04350+Q3ZCM7+P07437+P68363+Q9BQE3+Q6PEY2+Q13885+Q9BVA1+Q9BUF5); assay: Inhibition of tubulin polymerization (unknown origin) at 10 uM; assay type: protein-complex assay

Vascular endothelial growth factor receptor 3 (Homo sapiens), sequence (P35916 whole entry): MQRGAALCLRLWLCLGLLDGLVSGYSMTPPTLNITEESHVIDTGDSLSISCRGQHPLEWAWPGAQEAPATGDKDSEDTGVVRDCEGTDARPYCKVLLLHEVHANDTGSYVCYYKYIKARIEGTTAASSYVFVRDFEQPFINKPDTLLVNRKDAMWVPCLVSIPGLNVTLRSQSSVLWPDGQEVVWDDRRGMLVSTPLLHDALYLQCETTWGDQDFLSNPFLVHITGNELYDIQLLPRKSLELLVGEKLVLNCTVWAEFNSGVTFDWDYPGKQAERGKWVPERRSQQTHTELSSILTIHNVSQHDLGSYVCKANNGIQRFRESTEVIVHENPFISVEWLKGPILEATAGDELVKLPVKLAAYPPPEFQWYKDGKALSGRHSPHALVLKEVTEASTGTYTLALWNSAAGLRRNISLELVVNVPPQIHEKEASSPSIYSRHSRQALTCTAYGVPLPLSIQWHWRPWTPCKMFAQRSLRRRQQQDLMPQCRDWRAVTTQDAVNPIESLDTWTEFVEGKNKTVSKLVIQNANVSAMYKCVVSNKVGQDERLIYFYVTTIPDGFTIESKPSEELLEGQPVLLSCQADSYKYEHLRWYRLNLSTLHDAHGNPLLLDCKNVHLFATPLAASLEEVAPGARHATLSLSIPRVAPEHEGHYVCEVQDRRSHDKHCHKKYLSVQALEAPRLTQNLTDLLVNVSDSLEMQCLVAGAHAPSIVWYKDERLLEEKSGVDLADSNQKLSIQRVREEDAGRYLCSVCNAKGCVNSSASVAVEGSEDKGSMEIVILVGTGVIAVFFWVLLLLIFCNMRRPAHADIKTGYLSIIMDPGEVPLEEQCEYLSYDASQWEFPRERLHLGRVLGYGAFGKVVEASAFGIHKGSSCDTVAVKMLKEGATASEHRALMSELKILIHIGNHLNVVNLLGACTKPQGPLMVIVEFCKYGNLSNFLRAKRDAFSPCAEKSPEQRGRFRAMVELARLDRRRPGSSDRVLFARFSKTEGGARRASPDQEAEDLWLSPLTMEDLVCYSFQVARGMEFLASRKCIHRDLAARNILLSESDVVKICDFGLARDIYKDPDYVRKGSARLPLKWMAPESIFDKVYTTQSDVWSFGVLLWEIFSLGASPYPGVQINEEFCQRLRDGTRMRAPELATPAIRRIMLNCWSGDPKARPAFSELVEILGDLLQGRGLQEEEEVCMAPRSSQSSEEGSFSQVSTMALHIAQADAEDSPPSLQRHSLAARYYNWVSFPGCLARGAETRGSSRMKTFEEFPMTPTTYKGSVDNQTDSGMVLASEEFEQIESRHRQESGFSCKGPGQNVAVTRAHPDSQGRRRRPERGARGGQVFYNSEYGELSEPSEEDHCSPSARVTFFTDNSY

SMILES | IC50 (U-937) | other results
COc1ccc(C2=C(c3c[nH]c4ccccc34)C(=O)OC2)cc1OC | 9 µM | –
CCCN1CC(c2ccc(OC)c(OC)c2)=C(c2c[nH]c3ccccc23)C1=O | 35 µM | –
CCCN1CC(c2ccc(OC)c(OC)c2)=C(c2cn(C)c3ccccc23)C1=O | 5 µM | –
COc1ccc(C2=C(c3cn(C)c4ccccc34)C(=O)NC2)cc1OC | – | Activity [1]: 47%; Activity [2]: 50%
CCOC(=O)n1cc(C2=C(c3ccc(OC)c(OC)c3)COC2=O)c2ccccc21 | 0.3 µM | inhibition (Tubulin (Homo sapiens)): Active
COc1ccc(C2=C(c3cn(C)c4ccccc34)C(=O)OC2)cc1OC | 1 µM | –
CCCN1CC(c2ccc(OC)c(OC)c2)=C(c2cn(C(=O)OCC)c3ccccc23)C1=O | 5 µM | –
